Columns and labels:
Type in all cases: in vivo
[1] = test system: Ambrosia artemisiifolia; experiment: Greenhouse trial, post-emergence, visual herbicidal effect; conditions: alone
Method: (§1) The weed seeds were sown in pots (diameter 8 cm) with sandy loam soil and germinated under optimum conditions. The herbides were applied by the post-emergence method onto the pots with the cultures, at a spray volume of 300 I/ha. The herbicides were applied on their own and in combination. The trial was conducted in a greenhouse under optimum growth conditions. The herbicidal effects were assessed visually by comparison of untreated and treated plants. The percentages mean: 0%=no effects, 100%=the plants die off completely). The percentages are used to calculate interactions between individual treatments and combination treatment according to S. R. Colby, Weeds 15, pages 20 to 22 (1967).
(§2) The abbreviations denote: • a.i.=active ingredient • E^C=expected value according to Colby (E^C=A+B−A×B100) • Δ=difference (%) of the measured value to the expected value (%) (measured value minus expected value)
(§3) Evaluation: • measured value E is greater than E^C:→synergism (+Δ) • measured value E equals E^C:→additive effect • measured value E is smaller than E^C:→antagonism (−Δ)

[2] = test system: Bidens pilosa; experiment: as above
Method: as §1, §2, §3

[3] = test system: Digitaria sanguinalis; experiment: as above; conditions: alone
Method: as §1, §2, §3

[4] = test system: Pharbitis purpurea; experiment: as above; conditions: alone
Method: as §1, §2, §3

[5] = test system: Setaria viridis; experiment: as above
Method: as §1, §2, §3

[6] = test system: Brachiaria platyphylla; experiment: as above
Method: as §1, §2, §3

[7] = test system: Xanthium strumarium; experiment: as above; conditions: alone
Method: as §1, §2, §3

[8] = test system: Centaurea cyanis; experiment: as above; conditions: alone
Method: as §1, §2, §3

[9] = test system: Papaver rhoeas; experiment: as above; conditions: alone
Method: as §1, §2, §3

[10] = test system: Polygonum convolvulus; experiment: as above; conditions: alone
Method: as §1, §2, §3

[11] = test system: Euphorbia heterophylla; experiment: Field trial, post-emergence, visual scoring
Method: (§4) The tests were conducted outdoors (plot trials, 10 m^2 per plot, 2 repetitions, spray application with 200-300 liters of water per hectare). Crops and broad-leaved weeds/weed grasses were sown under customary field conditions. In addition, a natural weed flora also appeared. Application was by the post-emergence method. The application rates of the herbicidally active compounds applied on their own or in combinations are likewise shown in the tables below. Evaluations were by visual scoring (using a 0-100% scale) after application by comparison of treated and untreated test variants.
as §2, §3

[12] = test system: Avena fatua; experiment: Greenhouse trial, post-emergence, visual herbicidal effect; conditions: Table 5-49, greenhouse, alone, 4 g of a.i./ha
Method: as §1, §2, §3

[13] = test system: Portulaca oleracea; experiment: Field trial, post-emergence, visual scoring; conditions: alone
Method: as §4, §2, §3

[14] = test system: Veronica hederifolia; experiment: Field trial, post-emergence, visual scoring; conditions: alone, 25 g of a.i./ha
Method: as §4, §2, §3

[15] = test system: Galium aparine; experiment: Field trial, post-emergence, visual scoring; conditions: Table 5-92, field, alone, 25 g of a.i./ha
Method: as §4, §2, §3

[16] = Table 5-91, greenhouse, 2 g of a.i./ha
[17] = Table 5-100, greenhouse, 1 g of a.i./ha
[18] = Table 5-99, greenhouse, 1 g of a.i./ha
[19] = Table 5-101, greenhouse, 1 g of a.i./ha
[20] = Table 5-103, greenhouse, 2 g of a.i./ha
[21] = Table 5-97, greenhouse, alone, 0.5 g of a.i./ha

## CCSc1c(Br)ccc(C(=O)Nc2nnnn2C)c1C [A1-23]
[1]; Table 5-29, greenhouse, 1 g of a.i./ha
  Activity [%] against Ambrosia artemisiifolia: 10%
[1]; Table 5-32, greenhouse, 1 g of a.i./ha
  Activity [%] against Ambrosia artemisiifolia: 0%
[2]; Table 5-28, greenhouse, alone, 2 g of a.i./ha
  Activity [%] against Bidens pilosa: 45%
[2]; Table 5-33, greenhouse, alone, 1 g of a.i./ha
  Activity [%] against Bidens pilosa: 35%
[3]; Table 5-35, greenhouse, 1 g of a.i./ha
  Activity [%] against Digitaria sanguinalis: 10%
[4]; Table 5-30, greenhouse, 1 g of a.i./ha
  Activity [%] against Pharbitis purpurea: 45%
[4]; Table 5-34, greenhouse, 2 g of a.i./ha
  Activity [%] against Pharbitis purpurea: 45%
[5]; Table 5-27, greenhouse, alone, 2 g of a.i./ha
  Activity [%] against Setaria viridis: 50%
[5]; Table 5-31, greenhouse, alone, 2 g of a.i./ha
  Activity [%] against Setaria viridis: 50%

## COCc1cnc(C2=NC(C)(C(C)C)C(=O)N2)c(C(=O)O)c1 (stereo not shown) [imazamox]
[1]; [16]
  Activity [%] against Ambrosia artemisiifolia: 10%
[1]; [17]
  Activity [%] against Ambrosia artemisiifolia: 0%
[1]; Table 5-102, greenhouse, 2 g of a.i./ha
  Activity [%] against Ambrosia artemisiifolia: 0%
[2]; Table 5-46, greenhouse, alone, 1 g of a.i./ha
  Activity [%] against Bidens pilosa: 10%
[2]; Table 5-47, greenhouse, alone, 2 g of a.i./ha
  Activity [%] against Bidens pilosa: 20%
[2]; Table 5-90, greenhouse, alone, 1 g of a.i./ha
  Activity [%] against Bidens pilosa: 10%
[6]; Table 5-45, greenhouse, alone, 2 g of a.i./ha
  Activity [%] against Brachiaria platyphylla: 10%
[4]; Table 5-98, greenhouse, 1 g of a.i./ha
  Activity [%] against Pharbitis purpurea: 15%
[7]; [18]
  Activity [%] against Xanthium strumarium: 0%
[7]; [19]
  Activity [%] against Xanthium strumarium: 10%
[7]; [20]
  Activity [%] against Xanthium strumarium: 0%

## CCOc1c(S(C)(=O)=O)ccc(C(=O)Nc2nnnn2C)c1Cl [A1-69]
[8]; Table 5-81, greenhouse, 4 g of a.i./ha
  Activity [%] against Centaurea cyanis: 65%
[9]; Table 5-82, greenhouse, 4 g of a.i./ha
  Activity [%] against Papaver rhoeas: 10%
[9]; Table 5-83, greenhouse, 4 g of a.i./ha
  Activity [%] against Papaver rhoeas: 10%
[10]; Table 5-84, greenhouse, 4 g of a.i./ha
  Activity [%] against Polygonum convolvulus: 0%
[11]; Table 5-85, field, alone, 25 g of a.i./ha
  Activity [%] against Euphorbia heterophylla: 20%

## CCS(=O)(=O)c1ccc(C(=O)Nc2nnnn2C)c(Cl)c1OCCCOC [A1-83]
[2]; Table 5-96, greenhouse, alone, 1 g of a.i./ha
  Activity [%] against Bidens pilosa: 35%
[6]; [21]
  Activity [%] against Brachiaria platyphylla: 0%

## CC(C)c1ccc(NC(=O)N(C)C)cc1 [isoproturon]
[8]; Table 5-81, greenhouse, 100 g of a.i./ha
  Activity [%] against Centaurea cyanis: 0%
[9]; Table 5-82, greenhouse, 200 g of a.i./ha
  Activity [%] against Papaver rhoeas: 40%
[9]; Table 5-83, greenhouse, 200 g of a.i./ha
  Activity [%] against Papaver rhoeas: 40%
[10]; Table 5-44, greenhouse, 200 g of a.i./ha
  Activity [%] against Polygonum convolvulus: 0%
[10]; Table 5-84, greenhouse, 200 g of a.i./ha
  Activity [%] against Polygonum convolvulus: 0%
[5]; Table 5-43, greenhouse, alone, 200 g of a.i./ha
  Activity [%] against Setaria viridis: 10%

## COC(=O)c1csc(C)c1S(=O)(=O)NC(=O)n1nc(OC)n(C)c1=O [thiencarbazone-methyl]
[1]; Table 5-52, greenhouse, 0.25 g of a.i./ha
  Activity [%] against Ambrosia artemisiifolia: 0%
[1]; Table 5-75, greenhouse, 0.25 g of a.i./ha
  Activity [%] against Ambrosia artemisiifolia: 0%
[2]; Table 5-96, greenhouse, alone, 0.5 g of a.i./ha
  Activity [%] against Bidens pilosa: 40%
[6]; [21]
  Activity [%] against Brachiaria platyphylla: 75%

## COc1c(C(=O)Nc2nnnn2C)ccc(C(F)(F)F)c1SC [A1-44]
[12]
  Activity [%] against Avena fatua: 0%
[8]; Table 5-50, greenhouse, 8 g of a.i./ha
  Activity [%] against Centaurea cyanis: 50%
[11]; Table 5-51, field, alone, 25 g of a.i./ha
  Activity [%] against Euphorbia heterophylla: 58%

## CCc1c(C(=O)Nc2nnnn2C)ccc(C(F)(F)F)c1SC [A1-33]
[10]; Table 5-44, greenhouse, 4 g of a.i./ha
  Activity [%] against Polygonum convolvulus: 0%
[5]; Table 5-43, greenhouse, alone, 2 g of a.i./ha
  Activity [%] against Setaria viridis: 75%

## CCS(=O)(=O)c1cccnc1S(=O)(=O)NC(=O)Nc1nc(OC)cc(OC)n1 [rimsulfuron]
[13]; Table 5-20, field, 6 g of a.i./ha
  Activity [%] against Portulaca oleracea: 0%

## COc1cc(OC)nc(NC(=O)NS(=O)(=O)c2cc(NC=O)ccc2C(=O)N(C)C)n1 [foramsulfuron]
[13]; Table 5-14, field, 16 g of a.i./ha
  Activity [%] against Portulaca oleracea: 0%

## COc1cc(OC)nc(NC(=O)NS(=O)(=O)c2ncccc2C(=O)N(C)C)n1 [nicosulfuron]
[13]; Table 5-19, field, 20 g of a.i./ha
  Activity [%] against Portulaca oleracea: 30%

## CS(=O)(=O)c1ccc(C(=O)C2C(=O)CCCC2=O)c([N+](=O)[O-])c1 [mesotrione]
[13]; Table 5-15, field, 25 g of a.i./ha
  Activity [%] against Portulaca oleracea: 0%

## CCS(=O)(=O)c1ccc(C(=O)Nc2nnnn2C)c(Cl)c1C1=NOC(COC)C1 (stereo not shown) [A1-66]
[1]; Table 5-75, greenhouse, 6 g of a.i./ha
  Activity [%] against Ambrosia artemisiifolia: 35%
[14]; Table 5-76, field
  Activity [%] against Veronica hederifolia: 75%

## Cc1c(C(=O)Nc2nnnn2C)ccc(S(C)(=O)=O)c1C1=NOCC1 [A1-24]
[3]; Table 5-36, greenhouse, 6 g of a.i./ha
  Activity [%] against Digitaria sanguinalis: 50%
[10]; Table 5-37, greenhouse, 6 g of a.i./ha
  Activity [%] against Polygonum convolvulus: 0%

## CCn1nnnc1NC(=O)c1ccc(C)c([S+](C)[O-])c1Cl (stereo not shown) [A1-84]
[4]; Table 5-98, greenhouse, 2 g of a.i./ha
  Activity [%] against Pharbitis purpurea: 30%
[7]; [18]
  Activity [%] against Xanthium strumarium: 10%

## Nc1c([N+](=O)[O-])ccc(Oc2ccccc2)c1Cl [aclonifen]
[13]; Table 5-22, field, 1200 g of a.i./ha
  Activity [%] against Portulaca oleracea: 0%

## CCn1nnnc1NC(=O)c1ccc(C(F)F)c(SC)c1OC [A1-79]
[1]; [16]
  Activity [%] against Ambrosia artemisiifolia: 30%
[2]; Table 5-90, greenhouse, alone, 2 g of a.i./ha
  Activity [%] against Bidens pilosa: 20%
[15]
  Activity [%] against Galium aparine: 70%

## CSc1c(C(F)(F)F)ccc(C(=O)Nc2nnnn2C)c1Cl [A1-85]
[1]; [17]
  Activity [%] against Ambrosia artemisiifolia: 50%
[7]; [19]
  Activity [%] against Xanthium strumarium: 25%

## CCS(=O)(=O)c1c(C(F)(F)F)ccc(C(=O)Nc2ncnn2C)c1Cl [A2-10]
[2]; Greenhouse, dosage 2 g of a.i./ha
  Activity [%] against Bidens pilosa: 50%
[6]; Greenhouse, dosage 1 g of a.i./ha, Table 5-110
  Activity [%] against Brachiaria platyphylla: 35%
[6]; Greenhouse, dosage 2 g of a.i./ha, Table 5-109
  Activity [%] against Brachiaria platyphylla: 0%

## COc1c(C(=O)Nc2nnnn2C)ccc(C(F)F)c1S(C)(=O)=O [A1-80]
[1]; Table 5-93, greenhouse, 1 g of a.i./ha
  Activity [%] against Ambrosia artemisiifolia: 25%

## Cn1nnnc1NC(=O)c1ccc(S(C)(=O)=O)c(COCC(F)(F)F)c1Cl [A1-61]
[6]; Table 5-64, greenhouse, alone, 6 g of a.i./ha
  Activity [%] against Brachiaria platyphylla: 0%
[5]; Table 5-65, greenhouse, alone, 3 g of a.i./ha
  Activity [%] against Setaria viridis: 0%
[14]; Table 5-66, field
  Activity [%] against Veronica hederifolia: 68%

## Cc1c(C(=O)Nc2ncnn2C)ccc(S(C)(=O)=O)c1S(C)(=O)=O [A2-4]
[1]; Table 5-102, greenhouse, 1 g of a.i./ha
  Activity [%] against Ambrosia artemisiifolia: 40%
[7]; [20]
  Activity [%] against Xanthium strumarium: 10%
[11]; Field, dosage 25 g of a.i./ha
  Activity [%] against Euphorbia heterophylla: 50%

## bicyclopyrone
[13]; Table 5-18, field, 25 g of a.i./ha
  Activity [%] against Portulaca oleracea: 23%

## C/C(=N\NC(=O)Nc1cc(F)cc(F)c1)c1ncccc1C(=O)O [diflufenzopyr]
[1]; Table 5-93, greenhouse, 25 g of a.i./ha
  Activity [%] against Ambrosia artemisiifolia: 50%
[6]; Greenhouse, dosage 25 g of a.i./ha, Table 5-113
  Activity [%] against Brachiaria platyphylla: 60%
[5]; Greenhouse, dosage 12.5 g of a.i./ha
  Activity [%] against Setaria viridis: 50%

## CCC(CC)Nc1c([N+](=O)[O-])cc(C)c(C)c1[N+](=O)[O-] [pendimethalin]
[3]; Table 5-36, greenhouse, 50 g of a.i./ha
  Activity [%] against Digitaria sanguinalis: 0%
[10]; Table 5-37, greenhouse, 100 g of a.i./ha
  Activity [%] against Polygonum convolvulus: 0%
[10]; Table 5-78, greenhouse, 100 g of a.i./ha
  Activity [%] against Polygonum convolvulus: 0%
[7]; Table 5-77, greenhouse, 100 g of a.i./ha
  Activity [%] against Xanthium strumarium: 0%

Source: patent US9867376B2, “Herbicidal compositions comprising N-tetrazol-5-yl)- or N-(triazol-5-yl)arylcarboxamides” (priority 2012, dated 2018)
